According to ChEMBL document CHEMBL5576037, “Discovery of the first ataxia telangiectasia and Rad3-related (ATR) degraders for cancer treatment” (Eur J Med Chem, 2024):
Active and inactive are the calls of the source. The calls are words filed in the database; no cut-off is given here.

Assays:
HCT-116 = experiment: Antiproliferative activity against human HCT-116 cells expressing wildtype ATM incubated for 72 hrs by CCK8 assay; assay type: functional, cell-based; conditions: HCT-116, 72 h
LoVo [1] = experiment: Antiproliferative activity against ATM deficient human LoVo cells incubated for 72 hrs by CCK8 assay; assay type: functional, cell-based
LoVo [2] = experiment: Induction of apoptosis in human LoVo cells assessed as apoptotic rate at 1 uM incubated for 48 hrs by Annexin V-FITC/PI staining based flow cytometric analysis (reference value: 5.32 %); assay type: functional
LoVo [3] = experiment: Cell cycle arrest in human LoVo cells assessed as accumulation of cells at G2/M phase at 1 uM incubated for 72 hrs by PI staining based flow cytometric analysis (reference value: 22.2 %); assay type: functional
LoVo [4] = experiment: Synergistic antitumor activity against human LoVo cells xenografted in BALB/c nude mouse assessed as tumor growth inhibition at 12.5 mg/kg, po administered once daily for 15 days in presence of cisplatin relative to control; assay type: functional; conditions: 360 h, time 15 day, read-out: TGI
LoVo [5] = experiment: Cell cycle arrest in human LoVo cells assessed as accumulation of cells at G0/G1 phase at 1 uM incubated for 72 hrs by PI staining based flow cytometric analysis (reference value: 52.3 %); assay type: functional
LoVo [6] = experiment: Cell cycle arrest in human LoVo cells assessed as accumulation of cells at S phase at 1 uM incubated for 72 hrs by PI staining based flow cytometric analysis (reference value: 25.5 %); assay type: functional
LoVo [7] = experiment: Induction of DNA damage in human LoVo cells assessed as increase in gammaH2AX expression at 1 uM incubated for 72 hrs by DAPI staining based immunofluorescence analysis; assay type: functional, cell-based
[8] = Selectivity ratio for inhibition of PI3K (unknown origin) to inhibition of ATR (unknown origin)
[9] = Selectivity ratio for inhibition of ATM (unknown origin) to inhibition of ATR (unknown origin)
[10] = target: Serine/threonine-protein kinase ATR (Homo sapiens, UniProt Q13535); experiment: Inhibition of ATR (unknown origin)
Sequence of Serine/threonine-protein kinase ATR (Q13535 whole entry): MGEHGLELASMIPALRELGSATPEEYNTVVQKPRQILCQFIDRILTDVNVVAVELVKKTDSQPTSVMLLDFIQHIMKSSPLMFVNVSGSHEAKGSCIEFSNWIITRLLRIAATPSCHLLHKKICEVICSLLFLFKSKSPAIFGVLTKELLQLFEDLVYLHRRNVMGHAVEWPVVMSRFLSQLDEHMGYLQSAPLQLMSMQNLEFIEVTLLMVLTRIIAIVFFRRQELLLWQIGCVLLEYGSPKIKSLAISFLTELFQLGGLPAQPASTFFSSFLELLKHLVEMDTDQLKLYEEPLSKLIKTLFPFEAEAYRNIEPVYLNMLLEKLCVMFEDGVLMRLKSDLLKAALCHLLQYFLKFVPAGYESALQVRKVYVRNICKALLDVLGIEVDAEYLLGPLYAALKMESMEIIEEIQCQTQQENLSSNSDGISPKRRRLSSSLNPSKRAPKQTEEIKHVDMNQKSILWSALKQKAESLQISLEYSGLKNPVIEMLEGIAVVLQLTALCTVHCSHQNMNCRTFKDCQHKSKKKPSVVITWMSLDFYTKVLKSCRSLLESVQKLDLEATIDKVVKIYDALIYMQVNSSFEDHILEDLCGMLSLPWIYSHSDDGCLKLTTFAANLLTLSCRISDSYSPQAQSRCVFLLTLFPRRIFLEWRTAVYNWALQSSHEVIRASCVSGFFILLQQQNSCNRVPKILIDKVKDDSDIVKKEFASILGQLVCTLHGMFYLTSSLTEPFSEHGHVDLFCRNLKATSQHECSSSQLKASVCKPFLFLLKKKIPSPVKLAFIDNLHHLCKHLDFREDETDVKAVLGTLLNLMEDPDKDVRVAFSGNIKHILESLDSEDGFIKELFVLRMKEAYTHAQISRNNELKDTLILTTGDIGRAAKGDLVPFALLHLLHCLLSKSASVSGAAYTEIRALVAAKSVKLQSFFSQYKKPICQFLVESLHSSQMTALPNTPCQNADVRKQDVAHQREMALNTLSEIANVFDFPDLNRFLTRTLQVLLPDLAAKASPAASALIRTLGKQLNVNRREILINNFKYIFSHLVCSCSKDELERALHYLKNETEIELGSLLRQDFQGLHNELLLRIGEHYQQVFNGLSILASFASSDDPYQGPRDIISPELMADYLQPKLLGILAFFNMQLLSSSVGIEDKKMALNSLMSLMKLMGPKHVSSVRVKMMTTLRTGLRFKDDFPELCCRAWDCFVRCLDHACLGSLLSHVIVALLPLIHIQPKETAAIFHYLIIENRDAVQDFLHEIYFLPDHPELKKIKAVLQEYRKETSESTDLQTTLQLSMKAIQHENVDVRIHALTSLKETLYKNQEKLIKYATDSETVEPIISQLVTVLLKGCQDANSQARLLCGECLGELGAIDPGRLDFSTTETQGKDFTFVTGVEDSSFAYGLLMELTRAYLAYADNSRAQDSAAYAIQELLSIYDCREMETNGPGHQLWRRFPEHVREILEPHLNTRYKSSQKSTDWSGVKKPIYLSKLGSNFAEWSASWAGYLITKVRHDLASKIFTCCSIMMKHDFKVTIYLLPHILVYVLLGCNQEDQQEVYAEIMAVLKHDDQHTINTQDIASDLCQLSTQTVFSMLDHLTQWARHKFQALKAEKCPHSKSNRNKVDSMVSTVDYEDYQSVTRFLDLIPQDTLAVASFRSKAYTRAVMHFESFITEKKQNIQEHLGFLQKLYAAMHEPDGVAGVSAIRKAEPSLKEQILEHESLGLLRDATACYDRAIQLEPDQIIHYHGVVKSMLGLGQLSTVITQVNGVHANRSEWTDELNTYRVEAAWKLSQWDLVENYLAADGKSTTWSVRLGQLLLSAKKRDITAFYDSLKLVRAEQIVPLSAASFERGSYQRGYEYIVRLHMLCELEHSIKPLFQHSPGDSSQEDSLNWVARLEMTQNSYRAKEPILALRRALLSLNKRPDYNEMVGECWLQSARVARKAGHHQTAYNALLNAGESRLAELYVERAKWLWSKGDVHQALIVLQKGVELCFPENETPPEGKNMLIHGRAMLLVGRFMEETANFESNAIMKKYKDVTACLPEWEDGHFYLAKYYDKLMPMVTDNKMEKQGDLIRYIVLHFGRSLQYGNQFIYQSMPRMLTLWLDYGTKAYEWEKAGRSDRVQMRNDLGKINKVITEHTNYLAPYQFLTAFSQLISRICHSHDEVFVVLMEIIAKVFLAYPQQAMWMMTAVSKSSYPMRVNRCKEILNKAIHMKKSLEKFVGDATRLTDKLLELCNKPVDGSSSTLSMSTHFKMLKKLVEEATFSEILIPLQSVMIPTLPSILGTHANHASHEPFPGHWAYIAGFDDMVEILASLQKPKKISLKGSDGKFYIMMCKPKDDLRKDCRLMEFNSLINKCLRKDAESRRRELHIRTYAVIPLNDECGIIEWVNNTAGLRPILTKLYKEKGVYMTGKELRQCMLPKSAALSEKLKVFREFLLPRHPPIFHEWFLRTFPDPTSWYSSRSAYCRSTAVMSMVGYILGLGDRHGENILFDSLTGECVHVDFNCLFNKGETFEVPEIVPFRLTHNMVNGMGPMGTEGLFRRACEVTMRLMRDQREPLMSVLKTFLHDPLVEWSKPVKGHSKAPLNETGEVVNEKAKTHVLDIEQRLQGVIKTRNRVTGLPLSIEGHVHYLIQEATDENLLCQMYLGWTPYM

[11] = target: Protein cereblon/Serine/threonine-protein kinase ATR (Homo sapiens, UniProt Q13535+Q96SW2); experiment: PROTAC activity at CRBN/ATR in human LoVo cells assessed as induction of ATR degradation; assay type: cell-based
Sequence of Protein cereblon/Serine/threonine-protein kinase ATR (Q13535 whole entry, looked up): as the sequence (Q13535 whole entry) above
Sequence of Protein cereblon/Serine/threonine-protein kinase ATR (Q96SW2 whole entry, looked up): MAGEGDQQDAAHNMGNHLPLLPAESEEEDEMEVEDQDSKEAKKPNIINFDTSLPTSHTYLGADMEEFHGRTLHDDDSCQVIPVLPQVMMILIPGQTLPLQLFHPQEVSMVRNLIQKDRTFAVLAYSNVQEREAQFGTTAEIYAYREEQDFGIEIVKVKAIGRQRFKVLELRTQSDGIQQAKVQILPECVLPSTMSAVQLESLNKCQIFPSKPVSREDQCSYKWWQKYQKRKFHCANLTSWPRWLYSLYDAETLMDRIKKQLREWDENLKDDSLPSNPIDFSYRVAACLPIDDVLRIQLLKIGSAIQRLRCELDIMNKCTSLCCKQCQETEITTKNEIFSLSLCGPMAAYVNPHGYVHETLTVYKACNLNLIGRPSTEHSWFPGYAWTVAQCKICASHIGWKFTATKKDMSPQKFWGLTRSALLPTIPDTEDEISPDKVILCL

## Cc1ncsc1-c1ccc(CNC(=O)[C@@H]2C[C@@H](O)CN2C(=O)[C@@H](NC(=O)CCCCn2cc(CCC(=O)N=[S@](C)(=O)C3(c4cc(N5CCOC[C@H]5C)nc(-c5ccnc6[nH]ccc56)n4)CC3)nn2)C(C)(C)C)cc1
HCT-116
  IC50: > 50 µM
LoVo [1]
  IC50: > 50 µM

## C[C@@H]1COCCN1c1cc(C2([S@@](C)(=O)=NC(=O)CCc3cn(CCCCCCC(=O)Nc4cccc5c4C(=O)N(C4CCC(=O)NC4=O)C5=O)nn3)CC2)nc(-c2ccnc3[nH]ccc23)n1 (stereo not given in full)
HCT-116
  IC50: > 50 µM
LoVo [1]
  IC50: 20 µM

## C[C@@H]1COCCN1c1cc(C2([S@@](C)(=O)=NC(=O)CCc3cn(CCOCCOCC(=O)Nc4cccc5c4C(=O)N(C4CCC(=O)NC4=O)C5=O)nn3)CC2)nc(-c2ccnc3[nH]ccc23)n1 (stereo not given in full)
HCT-116
  IC50: > 50 µM
LoVo [1]
  IC50: 26.7 µM

## C[C@@H]1COCCN1c1cc(C2([S@@](C)(=O)=NC(=O)CCc3cn(CCCCCCCCCCC(=O)Nc4cccc5c4C(=O)N(C4CCC(=O)NC4=O)C5=O)nn3)CC2)nc(-c2ccnc3[nH]ccc23)n1 (stereo not given in full)
HCT-116
  IC50: > 50 µM
LoVo [1]
  IC50: 16.4 µM

## C[C@@H]1COCCN1c1cc(C2([S@@](C)(=O)=NC(=O)CCc3cn(CCCCCCCCC(=O)Nc4cccc5c4C(=O)N(C4CCC(=O)NC4=O)C5=O)nn3)CC2)nc(-c2ccnc3[nH]ccc23)n1 (stereo not given in full)
HCT-116
  IC50: > 50 µM
LoVo [1]
  IC50: 32.4 µM

## Cc1ncsc1-c1ccc(CNC(=O)[C@@H]2C[C@@H](O)CN2C(=O)[C@@H](N)C(C)(C)C)cc1
HCT-116
  IC50: > 50 µM
LoVo [1]
  IC50: > 50 µM

## C[C@@H]1COCCN1c1cc(C2([S@](C)(=N)=O)CC2)nc(-c2cc[nH]c3nccc2-3)n1 [CERALASERTIB]
HCT-116
  IC50: 3.62 µM
LoVo [2]
  Activity: 42%
LoVo [1]
  IC50: 0.83 µM
LoVo [3]
  Activity: 11.5%
LoVo [4]
  inhibition in vivo at 12.5 mg/kg: 52.7%
LoVo [5]
  Activity: 71.8%
LoVo [6]
  Activity: 16.7%
LoVo [7]
  Activity: Active

## C[C@@H]1COCCN1c1cc(C2([S@@](C)(=O)=NC(=O)CCc3cn(CCCCCCCCCC(=O)Nc4cccc5c4C(=O)N(C4CCC(=O)NC4=O)C5=O)nn3)CC2)nc(-c2ccnc3[nH]ccc23)n1 (stereo not given in full)
HCT-116
  IC50: > 50 µM
LoVo [1]
  IC50: 21.2 µM

## Nc1cccc2c1C(=O)N(C1CCC(=O)NC1=O)C2=O (stereo not given) [POMALIDOMIDE]
HCT-116
  IC50: > 50 µM
LoVo [1]
  IC50: > 50 µM

## C[C@@H]1COCCN1c1cc(C2([S@@](C)(=O)=NC(=O)CCc3cn(CCCCCC(=O)Nc4cccc5c4C(=O)N(C4CCC(=O)NC4=O)C5=O)nn3)CC2)nc(-c2ccnc3[nH]ccc23)n1 (stereo not given in full)
HCT-116
  IC50: > 50 µM
LoVo [1]
  IC50: 23.3 µM

## Nc1nn2cc(F)cnc2c1C(=O)Nc1cncc(F)c1N1CCC(C(=O)N2CCN(C3COC3)CC2)CC1 [M4344]
[8]
  Selectivity ratio: > 50
[9]
  Selectivity ratio: > 50
[10]
  IC50: 0.00015 µM

## Cc1ncsc1-c1ccc(CNC(=O)[C@@H]2C[C@@H](O)CN2C(=O)[C@@H](NC(=O)CCCCCCCCCCn2cc(CCC(=O)N=[S@](C)(=O)C3(c4cc(N5CCOC[C@H]5C)nc(-c5ccnc6[nH]ccc56)n4)CC3)nn2)C(C)(C)C)cc1
HCT-116
  IC50: > 50 µM
LoVo [1]
  IC50: > 50 µM

## C[C@@H]1COCCN1c1cc(C2([S@@](C)(=O)=NC(=O)CCc3cn(CCOCCOCCOCC(=O)Nc4cccc5c4C(=O)N(C4CCC(=O)NC4=O)C5=O)nn3)CC2)nc(-c2ccnc3[nH]ccc23)n1 (stereo not given in full)
HCT-116
  IC50: > 50 µM
LoVo [1]
  IC50: > 50 µM

## CCN1C(=O)CCC(N2C(=O)c3cccc(NC(=O)CCCCCCCCCn4cc(CCC(=O)N=[S@](C)(=O)C5(c6cc(N7CCOC[C@H]7C)nc(-c7ccnc8[nH]ccc78)n6)CC5)nn4)c3C2=O)C1=O (stereo not given in full)
[11]
  Activity: inactive
HCT-116
  IC50: > 50 µM
LoVo [1]
  IC50: > 50 µM

## C[C@@H]1COCCN1c1cc(C2([S@@](C)(=O)=NC(=O)CCc3cn(CCCCC(=O)Nc4cccc5c4C(=O)N(C4CCC(=O)NC4=O)C5=O)nn3)CC2)nc(-c2ccnc3[nH]ccc23)n1 (stereo not given in full)
HCT-116
  IC50: > 50 µM
LoVo [1]
  IC50: 28.4 µM

## Cc1ncsc1-c1ccc(CNC(=O)[C@@H]2C[C@@H](O)CN2C(=O)[C@@H](NC(=O)CCCCCCCn2cc(CCC(=O)N=[S@](C)(=O)C3(c4cc(N5CCOC[C@H]5C)nc(-c5ccnc6[nH]ccc56)n4)CC3)nn2)C(C)(C)C)cc1
HCT-116
  IC50: > 50 µM
LoVo [1]
  IC50: > 50 µM
